Measured values from US4185015A, “Methoxymethyl 6-[D-2,2-dimethyl-4-(4-hydroxyphenyl)-5-oxo-1-imidazolyl]penicillanate” (priority 1977, dated 1980).
Like-named read-outs stand apart in the source and are kept apart here.

What was measured:
[1] = Oral absorption in man, BL-P1780 Study 101; conditions: for Cmax: saliva
Method: (§1) Only the latter are biologically active per se. Also, both original ester and parent penicillin were measured.
Three formulations were each administered once orally to six (6) healthy adult male subjects in BL-P1780 Study 101 as follows:
A. BL-P1780, 500 mg. (of amoxicillin-equivalent activity) as two 250 mg. buffered tablets.
B. BL-P1780, 500 mg. (an amoxicillin-equivalent activity) as two 250 mg. buffered tablets with 3.5 g. sodium bicarbonate being taken five minutes prior to the adminstration of BL-P1780.
C. Amoxicillin, 500 mg. as two 250 mg. capsules.
1. To investigate the human safety and tolerance of single 500 mg. doses of BL-P1780.
2. To determine the effect of intragastric buffering with sodium bicarbonate on the absorption of BL-P1780.
3. To compare amoxicillin plasma and saliva concentrations and urinary excretion between BL-P1780 and amoxicillin.

E. coli = assay: MIC in Nutrient Broth (Table III); format: cell-based; conditions: Escherichia coli; E. coli (10^-4)
Excerpt: (§2) Organism in Nutrient Broth
(§3) **Dilution of overnight broth culture

Ps. aeruginosa = assay: MIC in Nutrient Broth (Table III); format: cell-based; conditions: Pseudomonas aeruginosa
Excerpt: as §2, §3

Pr. morganii = assay: MIC in Nutrient Broth (Table III); format: cell-based; conditions: Morganella morganii
Excerpt: as §2, §3

K. pneumoniae = assay: MIC in Nutrient Broth (Table III); format: cell-based; conditions: Klebsiella pneumoniae
Excerpt: as §2, §3

Pr. mirabilis = assay: MIC in Nutrient Broth (Table III); format: cell-based; conditions: Proteus mirabilis; Pr. mirabilis (10^-4)
Excerpt: as §2, §3

E. coli Juhl = assay: MIC in Nutrient Broth (Table III); format: cell-based; conditions: Escherichia coli; E. coli Juhl (10^-4)
Excerpt: as §2, §3

Sal. enteritidis = assay: MIC in Nutrient Broth (Table III); format: cell-based; conditions: Salmonella enterica; Sal. enteritidis (10^-4)
Excerpt: as §2, §3

S. aureus BX1633 = assay: MIC in Nutrient Broth (Table III); format: cell-based; conditions: Staphylococcus aureus
Excerpt: as §2, §3

S. aureus Meth.-Res. = assay: MIC in Nutrient Broth (Table III); format: cell-based; conditions: Staphylococcus aureus
Excerpt: as §2, §3

S. aureus Smith = assay: MIC in Nutrient Broth (Table III); format: cell-based; conditions: Staphylococcus aureus, S. aureus Smith (10^-4)
Excerpt: as §2, §3

Ser. marcescens = assay: MIC in Nutrient Broth (Table III); format: cell-based; conditions: Serratia marcescens; Ser. marcescens (10^-4)
Excerpt: as §2, §3

S. aureus = assay: MIC in Nutrient Broth (Table III); format: cell-based; conditions: Staphylococcus aureus; S. aureus+50% serum (10^-4)
Excerpt: as §2, §3

Ent. cloacae = assay: MIC in Nutrient Broth (Table III); format: cell-based; conditions: Enterobacter cloacae, Ent. cloacae (10^-4)
Excerpt: as §2, §3

Str. pneumoniae = assay: MIC in Nutrient Broth (Table III); format: cell-based; conditions: Streptococcus pneumoniae, 10^-3 dilution of overnight broth culture, 45% AAB, 5% serum, 50% broth
Excerpt: as §2
(§4) *45% AAB 5% serum 50% broth listed above,
as §3

Str. pyogenes = assay: MIC in Nutrient Broth (Table III); format: cell-based; conditions: Streptococcus pyogenes, 10^-3 dilution of overnight broth culture, 45% AAB, 5% serum, 50% broth
Excerpt: as §2, §4, §3

[2] = Bioassay of amoxicillin from the ester; conditions: 20 mg. ester in 10 ml. of 50/50 acetone/pH 7.0 buffer
[3] = in vivo, po
Method: as §1

[4] = man, oral 500 mg., six subjects

## CC1(C)S[C@@H]2[C@H](NC(=O)[C@H](N)c3ccc(O)cc3)C(=O)N2[C@H]1C(=O)O [amoxicillin, D-6-(p-hydroxy-α-aminophenylacetamido)penicillanic acid]
[1]; human, po, 500 mg, maximum saliva amoxicillin level, man, oral 500 mg.
  Cmax: 60 ng/mL
[1]; human, po, 500 mg, mean peak saliva amoxicillin level, man, oral 500 mg.
  Cmax: 30 ng/mL
[1]; human, urine, po, 500 mg
  dose excreted at 24 h: 50.9%
[1]; man, oral 500 mg.
  time course of saliva amoxicillin levels: delayed and erratic
[1]; [4]
  subjects found to be slow absorbers: Two of the six subjects
  subjects with detectable saliva amoxicillin levels: only 3 of the 6 subjects

## CC1(C)S[C@@H]2[C@H](NC(=O)[C@H](N)c3ccccc3)C(=O)N2[C@H]1C(=O)O [Sodium Ampicillin]
E. coli
  MIC: 16 µg/mL
Ps. aeruginosa
  MIC: > 125 µg/mL
Pr. morganii
  MIC: > 125 µg/mL
K. pneumoniae
  MIC: 125 µg/mL
K. pneumoniae; K. pneumoniae (10^-4), first of two lines, read-out: MIC
  MIC: 0.5 µg/mL
Pr. mirabilis
  MIC: 0.25 µg/mL
E. coli Juhl
  MIC: 2 µg/mL
Sal. enteritidis
  MIC: 0.13 µg/mL
S. aureus BX1633; BX1633
  MIC: > 125 µg/mL
S. aureus BX1633; BX1633, S. aureus BX1633 (10^-3), read-out: MIC
  MIC: 32 µg/mL
S. aureus Meth.-Res.
  MIC: > 125 µg/mL
S. aureus Meth.-Res.; S. aureus Meth.-Res. (10^-3), 37° C., read-out: MIC
  MIC: 32 µg/mL
S. aureus Smith
  MIC: 0.06 µg/mL
Ser. marcescens
  MIC: 32 µg/mL
S. aureus
  MIC: 0.13 µg/mL
Ent. cloacae; first of three lines
  MIC: > 125 µg/mL
Ent. cloacae; second of three lines, read-out: MIC
  MIC: 32 µg/mL
Ent. cloacae; third of three lines, read-out: MIC
  MIC: 63 µg/mL
Str. pneumoniae
  MIC: 0.016 µg/mL
Str. pyogenes
  MIC: 0.008 µg/mL

## COCOC(=O)[C@@H]1N2C(=O)[C@@H](NC(=O)[C@H](N)c3ccc(O)cc3)[C@H]2SC1(C)C [Example 5, methoxymethyl ester of amoxicillin]
[2]
  bioassay of amoxicillin: 1968 µg/mL
  bioassay of amoxicillin, percent of theory: about 110 % of theory

## COCOC(=O)[C@@H]1N2C(=O)[C@@H](N3C(=O)[C@@H](c4ccccc4)NC3(C)C)[C@H]2SC1(C)C [BL-P1761, methoxymethyl ester of hetacillin]
[3]
  hydrolysis of the ester: hydrolyze eventually to their parent penicillins
